# Literature values, collected in PMC10026764, “Overcoming the imatinib-resistant BCR-ABL mutants with new ureidobenzothiazole chemotypes endowed with potent and broad-spectrum anticancer activity” (Journal of Enzyme Inhibition and Medicinal Chemistry, 2023).
# What was measured:
# Set-up in all cases: method as in earlier work
# Details in all cases: imatinib mesylate NSC 743414, NCI data; cited from earlier work
# NCI-H226 = system: NCI-H226
# NCI-H460 = system: NCI-H460
# COLO 205 = system: COLO 205
# U251 = system: U251
# LOX IMVI = system: LOX IMVI
# SK-MEL-2 = system: SK-MEL-2
# SK-MEL-28 = system: SK-MEL-28
# UACC-62 = system: UACC-62
# IGROV1 = system: IGROV1
# OVCAR-5 = system: OVCAR-5
# MCF7 = system: MCF7
structure (smiles),measurement,setting,value
Cc1ccc(NC(=O)c2ccc(CN3CCN(C)CC3)cc2)cc1Nc1nccc(-c2cccnc2)n1 [Imatinib],GI50,NCI-H226,18.1 µM
same,GI50,NCI-H460,16.2 µM
same,GI50,COLO 205,17.6 µM
same,GI50,U251,18 µM
same,GI50,LOX IMVI,18.1 µM
same,GI50,SK-MEL-2,25 µM
same,GI50,SK-MEL-28,14.6 µM
same,GI50,UACC-62,19 µM
same,GI50,IGROV1,21.2 µM
same,GI50,OVCAR-5,0.58 µM
same,GI50,MCF7,18.2 µM
